Columns and labels:
[1] = system: ASH-3 (Thyroid Gland Carcinoma); assay: Bliss excess, mean over the matrix (fraction); higher = more synergy
Procedure, shortened: (§1)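 Cell lines in DMEM/F12 or RPMI with 10% FBS were plated in 1536-well plates, held 24 hours at 37°C, 5% CO2, then given two-drug dose matrices for 72 hours (DMSO typically 0.2%). Viability was read by CellTiter-Glo 2.0 luminescence and scaled as inhibition from 0 (vehicle wells) to 1 (blank wells). Combination Emax is the second-highest inhibition in the matrix; Bliss excess is observed combination effect minus expected EA + EB − EA·EB, EA and EB being single-agent effects.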

EW-13 (Ewing's Sarcoma) [2] = assay: as above
Procedure, shortened: as §1

GI-1 (Glioblastoma) [3] = assay: as above
Procedure, shortened: as §1

[4] = system: LC4-1 (B-Lymphoblastic Leukemia); assay: as above
Procedure, shortened: as §1

NB7 (Neuroblastoma) = assay: as above
Procedure, shortened: as §1

[5] = system: NCI-N87 (Gastric Carcinoma); assay: as above
Procedure, shortened: as §1

[6] = system: PFSK-1 (Other Solid Carcinomas); assay: as above
Procedure, shortened: as §1

[7] = system: EBC-1 (Squamous Cell Lung Carcinoma); assay: combination Emax (second highest fraction inhibited in the dose matrix, 72 h); higher = more inhibition; extreme values may be limits of the assay
Procedure, shortened: as §1

EW-13 (Ewing's Sarcoma) [8] = assay: as above
Procedure, shortened: as §1

GI-1 (Glioblastoma) [9] = assay: as above
Procedure, shortened: as §1

[10] = system: H-EMC-SS (Chondrosarcoma); assay: as above
Procedure, shortened: as §1

[11] = system: HuP-T3 (Pancreatic Carcinoma); assay: as above
Procedure, shortened: as §1

IMR-5 (Neuroblastoma) = assay: as above
Procedure, shortened: as §1

[12] = system: KLE (Endometrial Carcinoma); assay: as above
Procedure, shortened: as §1

[13] = system: KP-2 (Pancreatic Carcinoma); assay: as above
Procedure, shortened: as §1

[14] = system: KYSE-50 (Esophageal Squamous Cell Carcinoma); assay: as above
Procedure, shortened: as §1

[15] = system: OCUM-1 (Gastric Carcinoma); assay: as above
Procedure, shortened: as §1

[16] = system: PF-382 (T-Lymphoblastic Leukemia); assay: as above
Procedure, shortened: as §1

[17] = system: PFSK-1 (Other Solid Carcinomas); assay: as above
Procedure, shortened: as §1

[18] = system: VMRC-LCD (Lung Adenocarcinoma); assay: as above
Procedure, shortened: as §1
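For Bliss excess, mean over the matrix in this document: after 72 h of two-drug dosing.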

SMILES	Bliss excess [1]	Bliss excess (EW-13 (Ewing's Sarcoma) [2])	Bliss excess (GI-1 (Glioblastoma) [3])	Bliss excess [4]	Bliss excess (NB7 (Neuroblastoma))	Bliss excess [5]	Bliss excess [6]	combination Emax [7]	combination Emax (EW-13 (Ewing's Sarcoma) [8])	combination Emax (GI-1 (Glioblastoma) [9])	combination Emax [10]	combination Emax [11]	combination Emax (IMR-5 (Neuroblastoma))	combination Emax [12]	combination Emax [13]	combination Emax [14]	combination Emax [15]	combination Emax [16]	combination Emax [17]	combination Emax [18]
Cc1c2c(nn1C)CSCc1cc(n(C)n1)CSc1cc(c3ccccc3c1)OCCCc1c(C(=O)O)n(C)c3c-2c(Cl)ccc13 [AZD5991] + CC1(C)CCC(CN2CCN(c3ccc(C(=O)NS(=O)(=O)c4ccc(NCC5CCOCC5)c([N+](=O)[O-])c4)c(Oc4cnc5[nH]ccc5c4)c3)CC2)=C(c2ccc(Cl)cc2)C1 [Venetoclax] (first compound max 1 µM, 7x7, partner max 1 µM)	-0.038	0.0893	0.0476	0.0705	-0.0612	-0.0041	0.0721	0.199	0.675	0.954	0.515	0.128	0.995	0.156	0.239	0.418	0.0835	0.337	1	0.164
CN(CCO)CC[C@H](CSc1ccccc1)Nc1ccc(S(=O)(=O)NC(=O)c2ccc(N3CCC([C@@H](O)c4ccccc4-c4ccc(Cl)cc4)CC3)cc2)cc1S(=O)(=O)C(F)(F)F [AZD4320] + C1CN(CCC1(C(=O)N[C@@H](CCO)C2=CC=C(C=C2)Cl)N)C3=NC=NC4=C3C=CN4 [Capivasertib] (first compound max 1 µM, 7x7, partner max 3 µM)	-0.0192	-0.0633	0.0172	0.0319	-0.0403	-0.103	0.078	0.935	0.677	0.627	0.753	0.118	0.788	0.206	0.842	0.0686	0.861	0.98	0.568	0.0578
COc1nnc2ccc(N3CCC(c4ccc(OCCN5CCN(C)C(=O)[C@H]5C)cc4)CC3)nn12 [AZD5153] + Cc1c2c(nn1C)CSCc1cc(n(C)n1)CSc1cc(c3ccccc3c1)OCCCc1c(C(=O)O)n(C)c3c-2c(Cl)ccc13 [AZD5991] (first compound max 1 µM, 7x7, partner max 1 µM)	-0.114	-0.0502	0.0022	-0.0736	0.0105	-0.0073	0.0454	0.862	0.68	0.961	0.345	0.534	1	0.668	0.427	0.713	0.581	0.986	0.982	0.925
COc1nnc2ccc(N3CCC(c4ccc(OCCN5CCN(C)C(=O)[C@H]5C)cc4)CC3)nn12 [AZD5153] + CCN(CCO)CCCOc1ccc2c(Nc3cc(CC(=O)Nc4cccc(F)c4)[nH]n3)ncnc2c1 [AZD2811] (first compound max 1 µM, 7x7, partner max 1 µM)	-0.0284	0.0251	0.0977	-0.0739	-0.0296	-0.0589	-0.0478	0.764	0.362	0.873	0.248	0.597	1	0.674	0.401	0.651	0.581	0.98	0.574	0.816
CC(=O)c1c(C)c2cnc(Nc3ccc(N4CCNCC4)cn3)nc2n(C2CCCC2)c1=O [Palbociclib] + Cc1c2c(nn1C)CSCc1cc(n(C)n1)CSc1cc(c3ccccc3c1)OCCCc1c(C(=O)O)n(C)c3c-2c(Cl)ccc13 [AZD5991] (first compound max 10 µM, 7x7, partner max 1 µM)	-0.0324	-0.0346	-0.0123	-0.0081	0.054	-0.0373	-0.0471	0.36	0.488	0.455	0.502	0.266	0.902	0.181	0.225	0.353	0.285	0.633	0.969	0.337
COc1nnc2ccc(N3CCC(c4ccc(OCCN5CCN(C)C(=O)[C@H]5C)cc4)CC3)nn12 [AZD5153] + CN(CC[C@H](CSC1=CC=CC=C1)NC2=C(C=C(C=C2)S(=O)(=O)NC(=O)C3=CC=C(C=C3)N4CCC(CC4)[C@H](C5=CC=CC=C5C6=CC=C(C=C6)Cl)O)S(=O)(=O)C(F)(F)F)CCO [AZD4320] (first compound max 1 µM, 7x7, partner max 1 µM)	0.107	-0.0243	–	–	–	–	0.0145	1	0.818	–	–	0.512	0.984	0.792	0.945	0.732	–	1	0.558	–
